Experimental data: patent publication US20090202660A1, “Agents and Methods for Osteogenic Oxysterols Inhibition of Oxidative Stress on Osteogenic Cellular Differentiation” (The Regents of the University of California, priority 2005, published 2009)

Legend:
[1] = test system: M2-10B4 marrow stromal cells; assay: Matrix mineralization (45Ca incorporation assay, von Kossa staining); type: cell-based, mouse; settings: M2 cells in osteogenic medium, 10-14 days
Protocol: (§1) Von Kossa and oil red O staining—Matrix mineralization in cell monolayers was detected by silver nitrate staining as previously described. Oil red O staining for detection of adipocytes was performed as previously described.
^45Ca incorporation assay—Matrix mineralization in cell monolayers was quantified using the ^45Ca incorporation assay as previously described.
After 14 days, mineralization was identified by a von Kossa staining, which appears black. FIG. 3C is a depiction of von Kossa staining of M2 cells exposed to various conditions. […]

osteocalcin mRNA = assay: Northern blotting for osteocalcin mRNA in M2 cells; type: cell-based, mouse; settings: M2 cells in osteogenic medium, up to 14 days
Protocol: RNA isolation and Northern blot analysis—Following treatment of cells under appropriate experimental conditions, total RNA was isolated using the RNA isolation kit from Stratagene (La Jolla, Calif., U.S.A.). Total RNA ([…]) was run on a 1% agarose/formaldehyde gel and transferred to Duralon-UV membranes (Strategene, Calif., U.S.A.) and cross-linked with UV light. The membranes were hybridized overnight at 60 degree C. with ^32P-labeled mouse osteocalcin cDNA probe, mouse lipoprotein lipase (LPL), mouse adipocyte protein 2 (aP2) PCR-generated probes, human 28S or 18S rRNA probes obtained from Geneka Biotechnology (Montreal, Quebec, Canada) and Maxim Biotech (San Francisco, Calif., U.S.A.), respectively. The PCR products were generated using primer sets synthesized by Invitrogen (Carlsbad, Calif., U.S.A.) with the following specifications: mouse aP2 gene (accession no. M13261); sense (75-95) 5′-[…]-3′, antisense (362-383) 5′-[…]-3′, generating a PCR product of 309 base pairs. Mouse LPL (accession no. XM—134193); sense (1038-1058) 5′-[…]-3′, antisense (1816-1836) 5′-[…]-3′, generating a PCR product of 799 base pairs. […] Following hybridization, the blots were washed twice at room temperature with 2×SSC+0.1% SDS, and then twice at 60 degree C. with 0.5×SSC+0.1% SDS, and exposed to X-ray film. The extent of gene induction was determined by densitometry.
After 4 and 8 days, total RNA from duplicate samples was isolated and analyzed for osteocalcin (Osc) and 28S rRNA expression by Northern blotting as described. FIG. 3E is a radiogram of Northern blotting for osteocalcin mRNA in M2 cells exposed to a control or combination of oxysterols for 4 or 8 days. FIG. 3F is a bar graph depicting the relative demsometric units of osteocalcin mRNA in M2 cells exposed to a control or combination of oxysterols for 4 or 8 days. Data from densitometric analysis of the Northern blot is shown in (F) as the average of duplicate samples, normalized to 28S rRNA.
RNA Isolation and Northern Blot Analysis—Total RNA was isolated using the RNA isolation kit from Stratagene (La Jolla, Calif., USA). Northern blotting and analysis of osteocalcin mRNA and 18S rRNA expression was performed as previously described (23).

M2 cells = assay: Troglitazone-induced adipogenesis, oil Red O staining and adipocyte count; type: cell-based, mouse; settings: troglitazone 10 μM, oxysterols 10 μM, 8-10 days
Protocol: as §1
Test 1: M2 cells at 90% confluence were treated with vehicle (C), PPAR-γ activator, troglitazone 10 uM (Tro), alone or in combination with 10 μM oxysterols 20S-, 22R-, or 25S-hydroxycholesterol. After 8 days, adipocytes were identified by oil Red 0 staining and quantified by counting under a phase contrast microscope. FIG. 6A is a bar graph depicting the effect of oxysterols on reducing adipogenesis of MSC.
Test 2: (A) M2 cells at confluence were treated in RPMI containing 10% FBS with control vehicle or 10 μM troglitazone (Tro) in the absence or presence of 10 μM 20S or 22S oxysterols. After 10 days, adipocytes were visualized by oil Red O staining and quantified by light microscopy, shown in (B). […] (C) M2 cells were treated at confluence with 10 μM Tro, alone or in combination with 10 μM 20S oxysterol. After 10 days, total RNA was isolated and analyzed for lipoprotein lipase (LPL), adipocyte P2 gene (aP2) or 18S rRNA expression by Northern blotting as described (Ref). Data from densitometric analysis of the Northern blot is shown in (D) as the average of duplicate samples, normalized to 18S rRNA.

[2] = test system: lipoprotein lipase (LPL) and adipocyte P2 gene (aP2); assay: Northern blotting for adipogenic genes in M2 cells; type: cell-based, mouse; settings: 10 μM Tro with 10 μM 20S, 10 days
Protocol: RNA isolation and Northern blot analysis—Following treatment of cells under appropriate experimental conditions, total RNA was isolated using the RNA isolation kit from Stratagene (La Jolla, Calif., U.S.A.). Total RNA ([…]) was run on a 1% agarose/formaldehyde gel and transferred to Duralon-UV membranes (Strategene, Calif., U.S.A.) and cross-linked with UV light. The membranes were hybridized overnight at 60 degree C. with ^32P-labeled mouse osteocalcin cDNA probe, mouse lipoprotein lipase (LPL), mouse adipocyte protein 2 (aP2) PCR-generated probes, human 28S or 18S rRNA probes obtained from Geneka Biotechnology (Montreal, Quebec, Canada) and Maxim Biotech (San Francisco, Calif., U.S.A.), respectively. […] The extent of gene induction was determined by densitometry.
Test 2: (A) M2 cells at confluence were treated in RPMI containing 10% FBS with control vehicle or 10 μM troglitazone (Tro) in the absence or presence of 10 μM 20S or 22S oxysterols. After 10 days, adipocytes were visualized by oil Red O staining and quantified by light microscopy, shown in (B). […] After 10 days, total RNA was isolated and analyzed for lipoprotein lipase (LPL), adipocyte P2 gene (aP2) or 18S rRNA expression by Northern blotting as described (Ref). […]

ERK1 and ERK2 = assay: Western blot for native and phosphorylated ERK in M2 cells; type: cell-based, mouse; settings: 5 μM, 1, 4 or 8 hours
Protocol: Western blot analysis—After treatments, cells were lysed in lysis buffer, protein concentrations determined using the Bio-Rad protein assay (Hercules, Calif. U.S.A.), and SDS-PAGE performed as previously described. Probing for native and phosphorylated ERKs was performed as previously reported.
(A) M2 cells at confluence were pretreated for four hours with RPMI containing 1% FBS, followed by treatment with control vehicle or 5 μM 20S oxysterol for 1, 4, or 8 hours. Next total cell extracts were prepared and analyzed for levels of native or phosphorylated ERK (pERK) using specific antibodies as previously described. Data from a representative of four experiments are shown, each treatment shown in duplicate samples. (B) M2 cells at confluence were pretreated for 2 hours with control vehicle (C) or 20 μM PD98059 (PD) in osteogenic medium as previously described. Next, a combination of 22R and 20S oxysterols (RS, 5 μM each) were added to appropriate wells as indicated. After 10 days of incubation, matrix mineralization was quantified by the ^45Ca incorporation assay as previously described. […] (C) M2 cells at confluence were pretreated for 2 hours with 20 µM PD98059 (PD) in RPMI containing 5% FBS. […] After 10 days, adipocytes were visualized by oil Red O staining and quantified by light microscopy as previously described. […]

[3] = test system: M2-10B4 marrow stromal cells; assay: Colorimetric alkaline phosphatase (ALP) activity assay on whole cell extracts
Protocol: Alkaline phosphatase activity assay: Colorimetric alkaline phosphatase (ALP) activity assay on whole cell extracts was performed as previously described.
Test 1: M2 cells at confluence were treated with control vehicle (C), or 10 µM oxysterols, in an osteogenic medium consisting of RPMI 1640 to which 10% fetal bovine serum (FBS), 50 µg/ml ascorbate and 3 mM beta-glycerophosphate (□GP) were added. After 3 days of incubation, alkaline phosphatase (ALP) activity was determined in cell homogenates by a colorimetric assay.
M2 cells at confluence were treated in osteogenic medium with control vehicle (C) or a combination of 22R and 20S oxysterols, at the indicated concentrations. ALP activity was measured after 3 days as described above.
Test 2: M2 cells were grown in RPMI medium containing 10% fetal bovine serum (FBS). At confluence, the cells were treated in RPMI containing 5% FBS plus ascorbate at 50 μg/ml and β-glycerophosphate at 3 mM to induce osteoblastic differentiation. Adipogenic differentiation was induced by treating the cells in growth medium plus 10˜M troglitazone. A vehicle (C) or oxysterol treatment was applied to cells in a variety of doses (in μM): 20S-Hydroxycholesterol, 25-Hydroxycholesterol, 22R-Hydroxycholesterol; 22S-Hydroxycholesterol; 7-ketocholesterol. Cells were always treated at 90% confluence. After 4 days, alkaline phosphatase activity was determined in whole cell lysates and normalized to protein. Alternatively, MSC cultures were prepared and treated with oxysterols as described above. Cells were treated at 90% confluence with the combination of 22R-Hydroxycholesterol and 20S-Hydroxycholesterol, each at 5 μM, for 4 to 96 hours. The oxysterols where removed and fresh media without oxysterols was added for a total duration of 96 hours. Alkaline phosphatase activity was measured in whole cell extracts and normalized to protein.
Cells were treated with the oxysterols (5 μM) for 4 days after which they were collected and analyzed by colorimetric assay for alkaline phosphatase activity. Results from a representative experiment are shown as the average of quadruplicate determination ±SD.

**Q.** `CC(C)CCC[C@](C)(O)[C@H]1CC[C@H]2[C@@H]3CC=C4C[C@@H](O)CC[C@]4(C)[C@H]3CC[C@@]21C` [20S-hydroxycholesterol] was tested. Which mineralization [1] did it give?
**A.** The mineralization was “unable to induce”.

**Q.** And the osteocalcin gene expression (osteocalcin mRNA)?
**A.** Its osteocalcin gene expression is “unable to induce”.

**Q.** What about the inhibition of adipogenesis (M2 cells) of the same molecule?
**A.** Its inhibition of adipogenesis is “inhibited adipogenesis”.

**Q.** What about the “expression of the adipogenic genes LPL and aP2” value [2] of the same molecule?
**A.** The value was “inhibition of the expression”.

**Q.** And the “activation of ERK1 and ERK2” value (ERK1 and ERK2)?
**A.** The value was “sustained activation”.

**Q.** And the “alkaline phosphatase activity (induction)” value ([3]; M2 cells in osteogenic medium, oxysterols 0.5-10 μM, 3-4 days)?
**A.** Its value is “induced alkaline phosphatase activity”.

**Q.** What about the alkaline phosphatase activity ([3]; M2 cells, ligands used at 10 μM, control 18±2, ±SD) of the same molecule?
**A.** Its alkaline phosphatase activity is 140±12 activity units/mg protein.
